The text below walks through data of US20040097565A1, “Analgesic and antiinflammatory drugs” (priority 2001, published 2004).

Marks after values point to notes of the source that are not given here.

Assay [1] deals with pain threshold at right rear limb plantar part of SHRSP strain male rats. Put plainly: Pain threshold improving action in SHRSP rat (Randall & Selitto's method). As to conditions: for Pain threshold (g) before administration of compound A: baseline before oral administration. It counts as in vivo. As to the method:
Pain Threshold Improving Action in SHRSP Rat (Easily Cerebral Apoplexy Developing Spontaneous Hypertension Rat)
SHRSP strain male rats (27 weeks old, Nihon Clea, 6 animals per group) were used. […] Measurement of a pain threshold value was performed according to a Randall & Selitto's method (Arch. Int. Pharmacodyn. Ther. 111, 409-419, 1957). Immediately after therefrom, a compound A [2-ethoxy-1-[[2′-(5-oxo-2,5-dihydro-1,2,4-oxadoazol-3-yl)biphenyl-4-yl]methyl]-1H-benzimidazole-7-carboxylic acid] was orally administered (0.5 ml/100 g, b.w.) and, one hour after, a pain threshold value was measured. Only a solvent was orally administered to a control group. Regarding the effect of a specimen, drug efficacy assessment was performed by threshold pressure of a control group and a specimen administration group.

Assay [2] has as its system carrageenin edema, right rear limb plantar part of SD strain male rats. The assay is described as follows: Carrageenin edema method (antiinflammatory action). It is filed as in vivo, rat. The following applies: 30 mg/kg oral, 1 hour before carrageenin, limb volume 3 hours after, relative to control. As to the method: Method: SD strain male rats (6 weeks old, Nihon Clea) were used at 6 animals per group. The carrageenin edema method was performed according to a method of Winter et al. (Proc. Soc. exp. Biol. Med., 111, 544-547, 1962). After a volume of a right rear limb plantar part was measured, a specimen [compound A: 2-ethoxy-1-[[2′-(5-oxo-2,5-dihydro-1,2,4-oxadiazol-3-yl)biphenyl-4-yl]methyl]-1H benzimidazole-7-carboxylic acid] was orally administered (1 ml/100 g), and water was additionally added to a total amount of 5 ml/rat. After one hour, 0.05 ml of a 1% carrageenin physiological saline solution was subcutaneously injected to induce edema. Whereby, a volume of a right rear limb plantar part was measured after 3 hours. The effect of a specimen was obtained by a difference of a limb volume between before carrageenin injection and after 3 hours, and calculating an inhibition rate (%) relative to a control group.
(In the carrageenan paw model, swelling and tenderness develop within hours.)

For assay [3], the system named is acetic acid writhing in ICR strain male mice. Put plainly: Acetic acid writhing method (analgesic action). It is filed as in vivo, mouse. As to conditions: 30 mg/kg oral, 30 minutes before 0.6% acetic acid i.p., counted for 20 minutes. Here is the method: Acetic Acid Writhing Method
Method: ICR strain male mice (5 weeks old, Nihon Clea) were used at 10 animals per group, and a specimen [compound A: 2-ethocy-1-[[2′-(5-oxo-2,5-dihydro-1,2,4-oxadiazol-3-yl)biphenyl-4-yl]methyl]-1H-benzimidazole-7-carboxylic acid] was orally administered (0.2 ml/10 g). After 30 minutes, a 0.6% acetic acid solution was intraperitoneally injected (0.1 ml/10 g) and, immediately, mice were placed into a transparent acryl resin observation cage, a time of writhing and stretching induced for 20 minutes therefrom was counted, and an inhibition rate (%) was calculated from average times of a control group and a specimen administration group.
(In general: An intraperitoneal irritant provokes the stretching counted in writhing tests.)

With `CCOc1nc2cccc(C(=O)O)c2n1Cc1ccc(-c2ccccc2-c2nc(=O)o[nH]2)cc1` [Compound A, 2-Ethoxy-1-[[2′-(5-oxo-2,5-dihydro-1,2,4-oxadiazol-3-yl)biphenyl-4-yl]methyl]-1H-benzimidazole-7-carboxylic acid], the “Pain threshold (g) before administration of compound A” value in assay [1] (1 mg/kg group) is 210 g; in assay [1] (3 mg/kg group) it was 213 g; in assay [1] (10 mg/kg group) it was 212 g; in assay [1] (30 mg/kg group) it was 214 g. Moreover, the “Pain threshold (g) 1 hour after administration of compound A” value is listed as 277* g in assay [1] (1 mg/kg oral), 352* g in assay [1] (3 mg/kg oral), 430* g in assay [1] (10 mg/kg oral) and 470* g in assay [1] (30 mg/kg oral). Moreover, the “Inhibition rate (%) of carrageenin edema” value in assay [2] was 34* %. Moreover, the “Inhibition rate (%) of writhing and stretching” value in assay [3] is on record as 52* %.
